From paper doi:10.1101/2020.10.22.350827v1 (biorxiv, 2020) come the findings set out here.

Test [1] has as its target T1, Nluc-A1R (adenosine A1 receptor) (Homo sapiens, UniProt P30542, I175A).
T1 sequence (P30542 1-326 I175A): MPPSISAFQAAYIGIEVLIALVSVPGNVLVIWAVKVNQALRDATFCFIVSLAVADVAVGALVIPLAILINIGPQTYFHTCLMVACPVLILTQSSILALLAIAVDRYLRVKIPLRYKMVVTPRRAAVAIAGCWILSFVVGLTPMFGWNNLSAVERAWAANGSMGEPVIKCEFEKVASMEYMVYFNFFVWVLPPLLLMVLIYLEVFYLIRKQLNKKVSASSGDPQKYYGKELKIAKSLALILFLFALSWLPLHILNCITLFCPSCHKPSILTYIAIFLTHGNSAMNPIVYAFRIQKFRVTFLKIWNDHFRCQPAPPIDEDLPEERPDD
The experiment in a line: NanoBRET competition binding, live HEK […] cells. In kind it is cell-based. (In general: Bioluminescence resonance energy transfer reports proximity on the nanometre scale.)

For test [2], the target named is T2, Nluc-A1R (adenosine A1 receptor) L253T (Homo sapiens, UniProt P30542, L253T).
T2 sequence (P30542 1-326 L253T): T1 sequence (P30542 1-326 I175A) with A175I, L253T
Description: cell-based. Details: species or system HEK 293.

Usually Ki stands for the equilibrium dissociation constant of an inhibitor or competing ligand from its target. A low value points to tighter binding.

Structures are written as SMILES. Positions count from the first letter of the chain named.

Take `OC[C@H]1O[C@@H](n2cnc3c(N[C@@H]4CCC[C@H]4O)ncnc32)[C@H](O)[C@@H]1O` [compound 6, HOCPA]: the Ki in test [1] was 2190 nM; in test [2], 2040 nM.
